Measurements taken from patent US8106055B2, “Substituted amide compounds” (Gruenenthal GmbH, priority 2007, dated 2012).

Key:
[1] = biological target: T1, human bradykinin 1 receptor (B1R) (Homo sapiens, UniProt P46663); assay: Functional investigation on the human bradykinin 1 receptor (B1R), Ca2+ FLIPR assay in CHO K1 hB1R cells; assay type: cell-based; conditions: CHO-K1, B1R antagonism human; test substance 10 μM; Ca2+ FLIPR, CHO K1 hB1R cells; read-out: B1R Ant. h [10 μM] % Inhibition
T1 construct: expressed in transfected cells; host or cells: CHO K1 cells
T1 sequence (P46663 1-353): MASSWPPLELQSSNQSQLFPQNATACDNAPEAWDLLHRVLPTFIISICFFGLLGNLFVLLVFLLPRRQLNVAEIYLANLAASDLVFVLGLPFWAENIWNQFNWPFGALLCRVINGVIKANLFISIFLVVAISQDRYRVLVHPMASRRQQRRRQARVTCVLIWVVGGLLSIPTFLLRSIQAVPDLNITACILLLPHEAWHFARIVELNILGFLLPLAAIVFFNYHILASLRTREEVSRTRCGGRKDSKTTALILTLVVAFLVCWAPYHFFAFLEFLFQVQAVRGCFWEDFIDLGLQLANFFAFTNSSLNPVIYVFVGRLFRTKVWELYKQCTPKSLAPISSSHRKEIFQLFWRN
Method in brief: (§1)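 Stably transfected CHO K1 cells loaded with Fluo-4; FLIPR Ca2+ fluorescence peak (ex 488/em 540 nm). Compound added first (agonism vs Lys-Des-Arg9-bradykinin ≥50 nM human, Des-Arg9-bradykinin 10 μM rat), then after 10-20 min agonist at EC80; antagonism as % inhibition, IC50 from concentration series, n=2-3, N≥2.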

[2] = biological target: T2, bradykinin 1 receptor (B1R) of the rat (Rattus norvegicus, UniProt P97583); assay: Functional investigation on the rat bradykinin 1 receptor (B1R), Ca2+ FLIPR assay in CHO K1 rB1R cells; assay type: cell-based; conditions: CHO-K1, B1R antagonism rat; test substance 10 μM; Ca2+ FLIPR, CHO K1 rB1R cells; read-out: B1R Ant. r [10 μM] % Inhibition
T2 construct: expressed in transfected cells; host or cells: CHO K1 cells
T2 sequence (P97583 1-337): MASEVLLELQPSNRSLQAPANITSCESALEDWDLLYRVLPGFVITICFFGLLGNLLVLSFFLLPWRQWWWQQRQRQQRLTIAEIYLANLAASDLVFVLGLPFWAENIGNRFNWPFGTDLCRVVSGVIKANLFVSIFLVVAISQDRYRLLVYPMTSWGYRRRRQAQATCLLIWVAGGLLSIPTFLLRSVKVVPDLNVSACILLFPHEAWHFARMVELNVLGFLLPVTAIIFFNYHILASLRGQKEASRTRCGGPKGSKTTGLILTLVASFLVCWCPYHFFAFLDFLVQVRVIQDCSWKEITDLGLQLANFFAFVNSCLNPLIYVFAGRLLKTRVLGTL
Method in brief: as §1

[3] = biological target: T3, human μ opiate receptor (Homo sapiens, UniProt P35372); assay: Affinity for the human μ opiate receptor ([3H]-naloxone displacement, CHO-K1 receptor membrane preparation, SPA); assay type: binding; conditions: 1.5 h, Table 3, to be read in the same way as Table 1; test concentration 1 μM; read-out: μ
T3 construct: purchased PerkinElmer Life Sciences, Zaventem, Belgium RB-HOM; host or cells: CHO-K1 cells (membrane preparation)
Method in brief: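 CHO-K1 membranes expressing human μ receptor incubated 90 min at room temperature with 1 nmol/l [3H]-naloxone and WGA-SPA beads in 50 mmol/l Tris-HCl, 0.06% BSA; 100 μmol/l naloxone defines non-specific binding. Values are % inhibition of specific binding at 1 μM; IC50 converted to Ki by Cheng-Prusoff.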

T3 sequence (P35372 whole entry): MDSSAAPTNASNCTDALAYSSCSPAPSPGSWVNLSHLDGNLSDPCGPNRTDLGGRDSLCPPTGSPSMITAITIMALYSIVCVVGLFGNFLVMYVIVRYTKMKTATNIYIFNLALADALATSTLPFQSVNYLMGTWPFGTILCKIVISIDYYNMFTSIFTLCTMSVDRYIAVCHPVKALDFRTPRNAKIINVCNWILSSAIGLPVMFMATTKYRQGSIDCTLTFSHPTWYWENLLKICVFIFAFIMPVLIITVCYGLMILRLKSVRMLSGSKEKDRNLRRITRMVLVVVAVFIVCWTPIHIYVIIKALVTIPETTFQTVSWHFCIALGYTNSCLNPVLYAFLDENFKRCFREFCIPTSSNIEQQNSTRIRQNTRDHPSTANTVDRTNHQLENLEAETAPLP

COc1cc(C)c(S(=O)(=O)N(C)CCOCC(=O)NCC2CCC(C(c3ccccc3)N3CCCC3)CC2)c(C)c1 (stereo not drawn) [Example 642, 2-(2-(4-methoxy-N,2,6-trimethylphenylsulfonamido)ethoxy)-N-((4-(phenyl(pyrrolidin-1-yl)methyl)cyclohexyl)methyl)acetamide]
inhibition at 10 µM [1]: 105% | inhibition at 10 µM [2]: 105% | inhibition at 1 µM [3]: 54%

CN(CCOCC(=O)NCC1CCC(C(c2ccccc2)N2CCCC2)CC1)S(=O)(=O)c1c(Cl)cccc1Cl (stereo not drawn) [Example 643, 2-(2-(2,6-dichloro-N-methylphenylsulfonamido)ethoxy)-N-((4-(phenyl(pyrrolidin-1-yl)methyl)cyclohexyl)methyl)acetamide]
inhibition at 10 µM [1]: 102% | inhibition at 10 µM [2]: 62% | inhibition at 1 µM [3]: 76%

O=C(COC1CCN(S(=O)(=O)c2c(Cl)cc(Cl)cc2Cl)C1)NCC1CCC(C(c2ccccc2)N2CCCC2)CC1 (stereo not drawn) [Example 644, N-((4-(phenyl(pyrrolidin-1-yl)methyl)cyclohexyl)methyl)-2-(1-(2,4,6-trichlorophenylsulfonyl)pyrrolidin-3-yloxy)acetamide]
inhibition at 10 µM [1]: 73% | inhibition at 10 µM [2]: 52% | inhibition at 1 µM [3]: 59%

COc1cc(C)c(S(=O)(=O)N2CCC(OCC(=O)NCC3CCC(C(c4ccccc4)N4CCCC4)CC3)C2)c(C)c1 (stereo not drawn) [Example 645, 2-(1-(4-methoxy-2,6-dimethylphenylsulfonyl)pyrrolidin-3-yloxy)-N-((4-(phenyl(pyrrolidin-1-yl)methyl)cyclohexyl)methyl)acetamide]
inhibition at 10 µM [1]: 101% | inhibition at 10 µM [2]: 100% | inhibition at 1 µM [3]: 38%

CN(CCOCC(=O)NCC1CCC(C(c2ccccc2)N2CCCC2)CC1)S(=O)(=O)c1c(Cl)cc(C(F)(F)F)cc1Cl (stereo not drawn) [Example 646, 2-(2-(2,6-dichloro-N-methyl-4-(trifluoromethyl)phenylsulfonamido)ethoxy)-N-((4-(phenyl(pyrrolidin-1-yl)methyl)cyclohexyl)methyl)acetamide]
inhibition at 10 µM [1]: 60% | inhibition at 10 µM [2]: 15% | inhibition at 1 µM [3]: 49%

COc1cc(C)c(S(=O)(=O)N2CCCC(OCC(=O)NC3CCC(C(c4ccccc4)N4CCCC4)CC3)C2)c(C)c1 (stereo not drawn) [Example 647, 2-(1-(4-methoxy-2,6-dimethylphenylsulfonyl)piperidin-3-yloxy)-N-(4-(phenyl(pyrrolidin-1-yl)methyl)cyclohexyl)acetamide]
inhibition at 10 µM [1]: 92% | inhibition at 10 µM [2]: 94% | inhibition at 1 µM [3]: 49%

COc1cc(C)c(S(=O)(=O)N2CCCC(OCC(=O)NCC3CCC(C(c4ccccc4)N4CCCC4)CC3)C2)c(C)c1 (stereo not drawn) [Example 648, 2-(1-(4-methoxy-2,6-dimethylphenylsulfonyl)piperidin-3-yloxy)-N-((4-(phenyl(pyrrolidin-1-yl)methyl)cyclohexyl)methyl)acetamide]
inhibition at 10 µM [1]: 95% | inhibition at 10 µM [2]: 98% | inhibition at 1 µM [3]: 95%

COc1cc(C)c(S(=O)(=O)N2CCCC2COCC(=O)NCC2CCC(C(c3ccccc3)N3CCCC3)CC2)c(C)c1 (stereo not drawn) [Example 649, 2-((1-(4-methoxy-2,6-dimethylphenylsulfonyl)pyrrolidin-2-yl)methoxy)-N-((4-(phenyl(pyrrolidin-1-yl)methyl)cyclohexyl)methyl)acetamide]
inhibition at 10 µM [1]: 105% | inhibition at 10 µM [2]: 106% | inhibition at 1 µM [3]: 67%

O=C(COCC1CCCN1S(=O)(=O)c1c(Cl)cc(Cl)cc1Cl)NC1CCC(C(c2ccccc2)N2CCCC2)CC1 (stereo not drawn) [Example 650, N-(4-(phenyl(pyrrolidin-1-yl)methyl)cyclohexyl)-2-((1-(2,4,6-trichlorophenylsulfonyl)pyrrolidin-2-yl)methoxy)acetamide]
inhibition at 10 µM [1]: 96% | inhibition at 10 µM [2]: 99% | inhibition at 1 µM [3]: 92%

O=C(COCC1CCCN1S(=O)(=O)c1c(Cl)cc(Cl)cc1Cl)NCC1CCC(C(c2ccccc2)N2CCCC2)CC1 (stereo not drawn) [Example 651, N-((4-(phenyl(pyrrolidin-1-yl)methyl)cyclohexyl)methyl)-2-((1-(2,4,6-trichlorophenylsulfonyl)pyrrolidin-2-yl)methoxy)acetamide]
inhibition at 10 µM [1]: 103% | inhibition at 10 µM [2]: 105% | inhibition at 1 µM [3]: 83%
